# Columns and labels:
# [1] = molecular target: IDO1 protein levels in BxPC3 cells (Homo sapiens, UniProt P14902); experiment: IDO1 immunoblotting (degradation); type: cell-based; design: endogenous in cells; host or cells: BxPC3 (DSMZ), IFN-γ stimulated; conditions: for Max. degradation (%): 24 h incubation, mean ± SD
# recombinant human IDO1 = molecular target: T1, recombinant human IDO1 (Homo sapiens, UniProt P14902); experiment: IDO1 enzymatic assay in vitro; type: biochemical; conditions: pre-incubation 37 °C 45 min; for inhibition at 14 µM: mean ± SD; for IC50: determined if inhibition at 14 µM higher than 50%
# T1 construct: The GST-tag of IDO1 was removed to obtain untagged full-length IDO1l using PreScission protease; GST (N, cleaved yes); made in house; own inference
# [2] = system: Kyn levels in BxPC3 cells (kynurenine generated by IDO1); experiment: Cellular Kyn assay (automated Kyn screening assay); type: cell-based; conditions: Homo sapiens, BXPC-3, 48 h, IFN-γ, L-Trp and compounds 48 h, mean ± SD, read-out: IC50 (Kyn assay), reduction of kynurenine levels
# [3] = molecular target: T2, recombinant full-length human IDO1 (Homo sapiens, UniProt P14902); experiment: Isothermal titration calorimetry (ITC); type: binding; conditions: 25 °C
# T2 construct: The GST-tag of IDO1 was removed to obtain untagged full-length IDO1l using PreScission protease; GST (N, cleaved yes); made in house; own inference
# Procedure: (§1) Incubation at 37 °C for 3 h. Representative data for n = 3. c) Time‐course of heme displacement from IDO1 detected by the absorbance at the Soret peak (404 nm) as a function of time. […] All curves were fit using a one‐site model with N = 1 and defined IDO1 concentration. Left plots show baseline corrected data, while right plots show integrated binding isotherms versus iDegs/IDO1 ratio. IDO1 protein (125 µM) was titrated into the stirred sample cell containing iDegs (25 µM, except for iDeg‐8 at 50 µM). Representative data for n = 3, except for iDeg‐9 (n = 2). g)–i) In vivo activity of iDeg‐6. NSG immunodeficient mice were injected with SKOV‐3 cells. Mice were treated with 18 intraperitoneal injections of iDeg‐6 (30 mg kg^−1) or vehicle. The pharmacological treatment was twice daily. Tumor volume was determined weekly by digital caliper. g) SKOV‐3 tumor growth curves in iDeg‐6‐treated mice (n = 12, green lines) or vehicle‐treated mice (n = 13, gray lines). Statistical analysis was performed by two‐way ANOVA: ****p < 0.001. h) Body weight changes during treatment window (mean values ± range). i) Survival data are shown by Kaplan‐Meier survival analysis. Mantel–Haenszel statistical analysis: p < 0.0001).
# ITC was performed using the MicroCal PEAQ-ITC system (Malvern) at 25 °C. Recombinant human full-length IDO1 (rhIDO1) was buffer-exchanged into 100 mM phosphate buffer (50 mM KH₂PO₄ and 50 mM K₂HPO₄, pH 6.57) with 1 mM TECP using a 10 K Amicon® Ultra centrifugal filter (Millipore). The buffer exchange was repeated ten times to ensure complete removal of interfering components. The final protein sample was diluted in the same phosphate buffer prior to titration.125 μM protein in 100 mM phosphate buffer was loaded into the syringe, while 25 μM compound (except for iDeg-8, 50 μM) in 100 mM phosphate buffer was loaded to the cell. All samples were adjusted to 25 °C and degassed before loading. Titrations were performed at 25 °C with one injection of 0.4 µL, followed by 18 injections of 2 µL. Experiments were performed with three biological replicates except for iDeg-9 with two biological replicates. Data were analyzed using the MicroCal PEAQ-ITC Analysis software and were plotted using GraphPad Prism 9.0 (GraphPad, USA).
# [4] = molecular target: T3, heme-bound IDO1 (holo-IDO1) (Homo sapiens, UniProt P14902); experiment: UV/Vis detection of heme-bound IDO1 (heme displacement); type: binding; conditions: 50 µM
# T3 construct: The GST-tag of IDO1 was removed to obtain untagged full-length IDO1l using PreScission protease; GST (N, cleaved yes); made in house; own inference
# Procedure: as §1
# Representative data of n=3 biological replicates. c, IDO1 was incubated with compounds (50 µM) or DMSO (control). UV/VIS spectra were acquired at five time points to monitor heme loss over time. Data are representative of two replicates.
# The test compounds or DMSO (vehicle control) were incubated with recombinant full-length human IDO1 (rhIDO1; 10 µM) in 50 mM potassium phosphate buffer (pH 6.5) for 3 h at 37 °C. Following incubation, samples were centrifuged at 5,000 × g for 10 minutes. UV/Vis absorption spectra were then recorded from 250 nm to 650 nm in 1 nm increments using UV-transparent microplates (UV-STAR®, Greiner Bio-One, Austria) on a Spark® multimode microplate reader (Tecan, Austria). Absorbance values were analyzed at 404 nm (A404), and were plotted using GraphPad Prism version 9.0 (GraphPad Software, USA).
# Chain of IDO1 protein levels in BxPC3 cells (P14902 whole entry): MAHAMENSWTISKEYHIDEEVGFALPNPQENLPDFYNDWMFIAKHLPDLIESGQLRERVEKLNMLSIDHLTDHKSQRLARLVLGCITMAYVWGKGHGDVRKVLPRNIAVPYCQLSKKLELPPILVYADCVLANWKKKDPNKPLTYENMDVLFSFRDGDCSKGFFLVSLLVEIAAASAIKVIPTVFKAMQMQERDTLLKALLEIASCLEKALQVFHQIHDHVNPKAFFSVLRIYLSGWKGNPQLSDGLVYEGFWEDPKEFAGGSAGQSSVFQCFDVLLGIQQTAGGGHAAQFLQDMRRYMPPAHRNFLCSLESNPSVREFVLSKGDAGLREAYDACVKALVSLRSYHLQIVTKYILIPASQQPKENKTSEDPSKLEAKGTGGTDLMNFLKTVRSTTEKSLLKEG
# T2 sequence (P14902 whole entry): as above
# T1 sequence (P14902 whole entry): as above
# T3 sequence (P14902 whole entry): as above
"heme displacement from holo-IDO1 (in words) ([4]; 37 °C, 3 h, Soret band 404 nm)","time course of heme displacement (in words) ([4]; absorbance at 404 nm over time, compared to iDeg-6 and -8)",Kd [3],Compound,Max. degradation (%) ([1]; 10 nM),Max. degradation (%) ([1]; 100 nM),"Dmax at 0.1 µM ([1]; BXPC-3, @100 nM, BxPC3 cells)","DC50 ([1]; BxPC3 cells, ND: not detected, read-out: DC50 (half-maximal degradation concentration))",inhibition at 14 µM (recombinant human IDO1),IC50 (recombinant human IDO1),IC50 [2],-TΔS (ITC) [3],ΔG (ITC) [3],ΔH (ITC) [3],Kd ([3]; one-site model),"IDO1 protein level by immunoblotting (in words) ([1]; BxPC3 cells, IFN-γ 24 h, washout, compounds 24 h)"
,,,"C#Cc1ccc(NC(=O)OC[C@]23CN(S(=O)(=O)c4ccc(C(C)(C)C)cc4CC)C[C@H]2C[C@H]2C[C@@H]3C2(C)C)cc1 [99 (iDeg-8), ((3aS,4R,6R,7aS)-2-((4-(tert-butyl)-2-ethylphenyl)sulfonyl)-5,5-dimethyloctahydro-3aH-4,6-methanoisoindol-3a-yl)methyl (4-ethynylphenyl)carbamate]",66 ± 4 (3) %,75 ± 7 (3) %,75%,3 nM,61 ± 1%,4 ± 3.3 µM,9.7 ± 2 nM,3.5 kcal/mol,-8.2 kcal/mol,-11.8 ± 0.7 kcal/mol,940 nM,
most efficient heme displacement,faster,122 nM,"C#Cc1ccc(NC(=O)OC[C@]23CN(S(=O)(=O)c4ccc(C(C)(C)C(=O)O)cc4)C[C@H]2C[C@H]2C[C@@H]3C2(C)C)cc1 [101 (iDeg-7), 2-(4-(((3aS,4R,6R,7aS)-3a-((((4-ethynylphenyl)carbamoyl)oxy)methyl)-5,5-dimethyloctahydro-2H-4,6-methanoisoindol-2-yl)sulfonyl)phenyl)-2-methylpropanoic acid]",36 ± 10 (5) %,54 ± 8 (5) %,,,75 ± 4%,0.31 ± 0.06 µM,21 ± 6 nM,13.2 kcal/mol,-9.4 kcal/mol,-22.6 ± 0.4 kcal/mol,120 ± 20 nM,only moderately reduced the IDO1 protein level

# Reference: paper PMC12811658, “Design, Synthesis, and Structural Evolution of Pseudo‐Natural Product IDO1 Inhibitors and Degraders” (Angewandte Chemie (International Ed. in English), 2025)
